Here are results for 36 compounds from US10071133B2, “Method for destroying exosomes, kit for destroying exosomes, and method for isolating exosomes derived from normal cells” (priority 2015, dated 2018).

Ends that are not written are not given here.

The test system of one assay is exosome fraction B derived from human breast cancer cells (MDA-MB-231-luc-D3H2LN). Kind of assay: Extraction of microRNA (miR-21) from exosomes derived from human breast cancer cells, real-time PCR. In kind it is biochemical. The following applies: 100 μM peptide, 1×10^11 particles/mL exosomes, 0.4 U/μL RNase inhibitor, 37° C., 24 hours; without peptide 8×10^−14M. The method, then:
(§1) A cell suspension of cell line MDA-MB-231-luc-D3H2LN derived from human breast cancer (=MM231-luc-D3H2LN, provided by the National Cancer Center Research Institute) was seeded in a dish containing RPMI 1640 medium (manufactured by Thermo Fisher Scientific Inc.) containing 10% fetal bovine serum. Subsequently, the cell line was grown at 37° C. under the condition that CO2 concentration was set to 5 volume % using a CO2 incubator, and then the medium was replaced with Advanced RPMI 1640 medium (manufactured by Thermo Fisher Scientific Inc.), followed by culturing for 48 hours, and therefore the culture solution containing exosomes was obtained. This culture solution was centrifuged at 2,000 G for 10 minutes to remove the precipitate, followed by centrifugation at 110,000 G for 70 minutes to precipitate the exosomes, and therefore an exosome fraction B was recovered. The recovered exosome fraction B was suspended in a phosphate buffered saline (PBS) and then stored at 4° C. Storage samples were lightly suspended with a vortex mixer (vibration mixer) before use.
(§2) MicroRNA (miR-21 or miR-16) in the reaction solution was subjected to reverse transcription PCR using reverse transcription primers (manufactured by Thermo Fisher Scientific Inc., Taqman microRNA Assays, RT primers, and hsa-mir-21 or hsa-mir-16) and a reverse transcriptase (manufactured by Thermo Fisher Scientific Inc., Taqman microRNA RT kit).
(§3) The reverse transcription PCR solution obtained by the above described method was processed and by comparing the number of cycles on a calibration curve of microRNA using Taqman Assay primer (manufactured by Thermo Fisher Scientific Inc., Taqman microRNA Assays, Taqman Assay primer, and hsa-mir-21 or hsa-mir-16) and Real-Time PCR Master Mixes (manufactured by Thermo Fisher Scientific Inc., TaqMan Universal PCR Master Mix II, w/UNG) with StepOnePlus Real-Time PCR System, MiR-21 or miR-16 was quantified. The calibration curve of microRNA was created using synthetic miR-21 (manufactured by Sigma-Aldrich Co. LLC.) or synthetic miR-16 (manufactured by Sigma-Aldrich Co. LLC.).
10 μL of the exosome fraction was prepared such that PBS contains 1×10^11 particles/mL of the exosome fraction B derived from human breast cancer cells, various antimicrobial peptides shown in the following Table 2 adjusted to 100 μM, and 0.4 U/μL of RNase inhibitor (manufactured by Toyobo Co., Ltd.), followed by incubation by being left to stand at 37° C. for 24 hours.
MicroRNA eluted into the solution was purified and recovered from the incubated solution of Example 10 above and Comparative Example 6 above by the following method.
First, 160 μL of PBS was added to the reaction solution, and then the solution was added to a centrifugal filter (manufactured by Millipore Corporation, Amicon Ultra 0.5 mL, 100K filter) and centrifuged at 14,000 G for 2 minutes. Subsequently, 100 μL of the centrifuged filtrate was recovered and introduced into a 1.5 mL tube. Next, 350 μL of RLT buffer (manufactured by QIAGEN, attached with RNeasy mini kit) and 675 μL of ethanol were added and mixed in the 1.5 mL tube. The obtained mixture was separated into two parts, and each of the separates was added onto a spin column (manufactured by QIAGEN, attached with RNeasy mini kit) followed by centrifugation at 8,000 G for 15 seconds, and the entire amount of the mixture was passed through the spin column. Thereafter, 500 μL of RPE buffer (manufactured by QIAGEN, attached with RNeasy mini kit) was added thereto and centrifuged at 8,000 G for 15 seconds. Furthermore, 500 μL of the RPE buffer was added to the spin column once more and centrifuged at 8,000 G for 15 seconds. Thereafter, the spin column was centrifuged at 14,000 G for 1 minute to remove the residual RPE buffer. Next, 30 μL of RNase free water (manufactured by QIAGEN, attached with RNeasy mini kit) was added to the spin column, left for 1 minute, and then centrifuged at 14,000 G for 1 minute, and the eluate obtained thereby was recovered. […]
For orientation: Real-time PCR tracks product formation cycle by cycle.
Take 9R: amino acid sequence RRRRRNWMWC: the “Destructive activity (concentration of microRNA miR-21 in eluate)” value (“Destructive activity” for short) was “B (the concentration of microRNA is 10×10^−14M to 50×10^−14M)”.
On the same count and under the same terms, as for Gageostatin C, the entry is “D (the concentration of microRNA is less than 10×10^−14M)”.
The same measure, in the same setting: as for “mCRAMP (GLLRKGGEKIGEKLKKIGQKIKNFFQKLVPQPEQ)”, the entry is “A (the concentration of microRNA is 50×10^−14M or more)”; as for Defensin HNP-1, “B (the concentration of microRNA is 10×10^−14M to 50×10^−14M)”.
Same read-out and setting: as for “Hepcidin-20 (ICIFCCGCCHRSKCGMCCKT; ends and bridges not checked; cysteine pairing not given here; UniProt P81172 65-84, looked up)”, the entry is “D (the concentration of microRNA is less than 10×10^−14M)”.
Consider Dermaseptin, for which the “Destructive activity” value is on record as “B (the concentration of microRNA is 10×10^−14M to 50×10^−14M)”.
On the same count and under the same terms, as for (HHPHG) 4 [(HHPHG)4], the entry is “B (the concentration of microRNA is 10×10^−14M to 50×10^−14M)”; as for NK-2, “B (the concentration of microRNA is 10×10^−14M to 50×10^−14M)”.
Same read-out and setting: as for Maximin 4, the entry is “B (the concentration of microRNA is 10×10^−14M to 50×10^−14M)”; as for “Epinecidin-1 (GFIFHIIKGLFHAGKMIHGLV-NH2)”, “B (the concentration of microRNA is 10×10^−14M to 50×10^−14M)”; as for `N=C(N)N` [4M guanidine, guanidine, reference compound], “D (the concentration of microRNA is less than 10×10^−14M)”.
Same read-out and setting: as for Ascaphin-8, the entry is “B (the concentration of microRNA is 10×10^−14M to 50×10^−14M)”.
“Short α-helical peptides (2) (GIIKKIIKKIIKKIIKKI-NH2)”: the “Destructive activity” value was “B (the concentration of microRNA is 10×10^−14M to 50×10^−14M)”.
As to “(Gln^53)-Connexin 37 (51-58) [(Gln^53)-Connexin 37(51-58)]”, the “Destructive activity” value is “D (the concentration of microRNA is less than 10×10^−14M)”.
On the same count and under the same terms, next, NRC-07: “B (the concentration of microRNA is 10×10^−14M to 50×10^−14M)”; “Dermcidin-1L (SSLLEKGLDGAKKAVGGLGKLGKDAVEDLESVGKGAVHDVKDVLDSVL)”: “D (the concentration of microRNA is less than 10×10^−14M)”.
Still for that read-out and setting: next, “Benzalkonium-Cl [1% Benzalkonium-Cl, reference compound]”: “D (the concentration of microRNA is less than 10×10^−14M)”; Caerin 1.1: “A (the concentration of microRNA is 50×10^−14M or more)”; TsAP-2: “B (the concentration of microRNA is 10×10^−14M to 50×10^−14M)”.
Same read-out and setting: as for `CCCCCCCCCCCCCCCCCCOP(=O)([O-])OCC[P+](C)(C)C` [Octadecylphosphophosphoniumcholine, reference compound], the entry is “D (the concentration of microRNA is less than 10×10^−14M)”.
With Alloferon 1 (HGVSGHGQHGVHG), the “Destructive activity” value is given as “D (the concentration of microRNA is less than 10×10^−14M)”.
Same read-out and setting: next, Maculatin 3.1: “B (the concentration of microRNA is 10×10^−14M to 50×10^−14M)”; PTP7: “D (the concentration of microRNA is less than 10×10^−14M)”; (HHPHG)3: “B (the concentration of microRNA is 10×10^−14M to 50×10^−14M)”.
Consider Tuftsin, for which the “Destructive activity” value is “B (the concentration of microRNA is 10×10^−14M to 50×10^−14M)”.
Same read-out and setting: next, (HHPHG) 2 (HHPHGHHPHG) [(HHPHG)2]: “B (the concentration of microRNA is 10×10^−14M to 50×10^−14M)”; NRC-03: “B (the concentration of microRNA is 10×10^−14M to 50×10^−14M)”.
Same read-out and setting: next, “Magainin I (GIGKFLHSAGKFGKAFVGEIMKS) [Megainin I]”: “B (the concentration of microRNA is 10×10^−14M to 50×10^−14M)”.
Consider Histatin-5, for which the “Destructive activity” value is recorded as “B (the concentration of microRNA is 10×10^−14M to 50×10^−14M)”.
Same read-out and setting: next, “Cecropin B (KWKVFKKIEKMGRNIRNGIVKAGPAIAVLGEAKAL-NH2)”: “B (the concentration of microRNA is 10×10^−14M to 50×10^−14M)”; Macropin 1: “B (the concentration of microRNA is 10×10^−14M to 50×10^−14M)”.
Regarding Sesquin (KTCENLADTY), the “Destructive activity” value is “D (the concentration of microRNA is less than 10×10^−14M)”.
The same measure, in the same setting: as for Pardaxin 4, the entry is “B (the concentration of microRNA is 10×10^−14M to 50×10^−14M)”; as for `CCCCCCCCCCCCCCCC[N+](C)(C)C.[Br-]` [1% CTAB, CTAB, reference compound], “D (the concentration of microRNA is less than 10×10^−14M)”.
Take Buforin IIb: the “Destructive activity” value is given as “B (the concentration of microRNA is 10×10^−14M to 50×10^−14M)”.
Still for that read-out and setting: next, “C-Reactive Protein (CRP) (174-185) (IYLGGPFSPNVL; UniProt P02741 192-203, looked up, fragment)”: “D (the concentration of microRNA is less than 10×10^−14M)”.

Another assay has as its system exosome fraction B derived from human breast cancer cells versus exosome fraction derived from human mammary gland cells (MCF-10A, normal cells). Kind of assay: Selectivity: miR-16 ratio, breast cancer exosomes versus mammary gland normal cell exosomes (Formula 1). In kind it is biochemical. Conditions: Formula 1, cancer/normal (MCF-10A); 100 μM peptide, 37° C., 24 hours. The method, then:
as §1
A cell suspension of cell line MCF 10A derived from human mammary epithelial cells (provided by the National Cancer Center Research Institute) was seeded in a dish containing Mammary Epithelium Cell Basal Medium (manufactured by Lonza). Subsequently, the cell line was grown at 37° C. under the condition that CO2 concentration was set to 5 volume % using a CO2 incubator, and then the medium was replaced with a fresh medium, followed by culturing for 48 hours, and the culture solution containing exosomes was obtained. This culture solution was centrifuged at 2,000 G for 10 minutes to remove the precipitate, followed by centrifugation at 110,000 G for 70 minutes to precipitate the exosomes, and an exosome fraction was recovered. The recovered exosome fraction was suspended in a phosphate buffered saline (PBS) and then stored at 4° C. Storage samples were lightly suspended with a vortex mixer (vibration mixer) before use.
as §2, §3
10 μL of the exosome fraction was prepared such that PBS contains 1×10^11 particles/mL of the exosome fraction B derived from human breast cancer cells, various antimicrobial peptides shown in the following Table 4 adjusted to 100 μM, and 0.4 U/μL of RNase inhibitor (manufactured by Toyobo Co., Ltd.), followed by incubation by being left to stand at 37° C. for 24 hours.
Thereafter, the eluted MicroRNA (miR-16) was purified and recovered from the incubated solution by the same method as the above described method for extraction from the incubated solution of Examples 10 and 11 above and Comparative Examples 6 and 7 above. […]
Take “mCRAMP (GLLRKGGEKIGEKLKKIGQKIKNFFQKLVPQPEQ)”: the mir-16 ratio was 9.
Same read-out and setting: as for Maximin 4, the figure is 311.
Consider Caerin 1.1, for which the mir-16 ratio worked out at 27.

Staying with this assay, now noted: from miR-16 ratio versus Comparative Example 8; breast cancer vs MCF-10A exosomes.
Turning to “mCRAMP (GLLRKGGEKIGEKLKKIGQKIKNFFQKLVPQPEQ)”, the Selectivity result is given as “B (evaluated as “B” in a case where the calculated miR-16 value was higher than the miR-16 ratio of Comparative Example 8)”.
Turning to Maximin 4, the Selectivity result is “B (evaluated as “B” in a case where the calculated miR-16 value was higher than the miR-16 ratio of Comparative Example 8)”.
Still for that read-out and setting: next, Caerin 1.1: “B (evaluated as “B” in a case where the calculated miR-16 value was higher than the miR-16 ratio of Comparative Example 8)”.
